By IC50 is commonly meant the concentration needed to halve the response being measured. Low values mean greater potency in that assay, high ones weaker potency in that assay.

The source of these data is PMC6407204, “Oral administration of the cannabigerol derivative VCE-003.2 promotes subventricular zone neurogenesis and protects against mutant huntingtin-induced neurodegeneration” (Translational Neurodegeneration, 2019).

One series concerns P19 cells. The series can be described thus: P19 neurosphere formation assay. The series is classed as cell-based, mouse. Particulars: P19 cells cultured 24 h. The method, then: All reagents, unless indicated, were from Sigma-Aldrich (St. Louis, MO, USA). The synthesis and structure of VCE-003.2 were previously described. Mouse embryonic teratocarcinoma P19 were cultured in high-glucose DMEM (Invitrogen) supplemented with 10% fetal bovine serum and 1% penicillin/streptomycin. P19 cells were plated in 24-well plates and transfected with Lipofectamine 2000 reagent according to the manufacture’s protocol (Invitrogen). Twenty-four hours post transfection, cells were collected for RNA extraction or luciferase assay determinations. […] Twenty-four hours later the mean neurosphere size was quantified. […]
Fig. 2 VCE-003.2 exerts a pro-neurogenic effect in vitro. a-b Mouse embryonic stem cells (R1 line) were treated with Vehicle, VCE-003.2 (500 nM) during neural differentiation for 21 days. Representative immunofluorescence images and quantification of CTIP2- and doublecortin-positive cells is shown (n = 3). c Luciferase reporter assay of the A4-MARS sequence of the CTIP2 locus was performed 24 h after P19 cell transfection under neuronal differentiation conditions and subject to pharmacological regulation as above. d P19 neurosphere formation assay was performed by culturing the cells for 24 h in the presence of Vehicle or VCE-003.2. […]

For another series, the target named is T1, CYP1A (Homo sapiens, UniProt P05177).
T1 construct: from tissue; host or cells: human liver microsomes
T1 sequence (P05177 2-516 limits assumed): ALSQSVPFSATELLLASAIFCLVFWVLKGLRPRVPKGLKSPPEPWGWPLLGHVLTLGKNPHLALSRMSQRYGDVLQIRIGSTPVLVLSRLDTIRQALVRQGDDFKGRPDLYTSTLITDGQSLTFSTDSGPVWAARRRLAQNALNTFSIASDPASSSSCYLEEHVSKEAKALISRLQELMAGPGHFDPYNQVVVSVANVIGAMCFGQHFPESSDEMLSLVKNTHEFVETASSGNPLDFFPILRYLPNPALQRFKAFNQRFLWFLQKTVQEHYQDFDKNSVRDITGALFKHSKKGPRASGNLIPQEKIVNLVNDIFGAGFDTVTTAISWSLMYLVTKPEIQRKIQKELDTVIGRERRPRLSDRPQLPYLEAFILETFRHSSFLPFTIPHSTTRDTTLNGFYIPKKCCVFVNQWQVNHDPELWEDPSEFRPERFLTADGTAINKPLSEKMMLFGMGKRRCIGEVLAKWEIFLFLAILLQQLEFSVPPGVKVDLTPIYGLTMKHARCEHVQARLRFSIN
The format is in vitro ADME. The conditions noted are these: Substrate = Etoxyresorufin, human liver microsomes. Here is the method:
(§1) Supplementary file 40035_2019_148_MOESM2_ESM.pdf: Additional file 2: Cytochrome P450 Inhibition (IC50 Determination). CYP1A Inhibition. VCE-003.2 (0.1, 0.25, 1, 2.5, 10, 25 μM in DMSO; final DMSO concentration = 0.3%) was incubated with human liver microsomes (0.25 mg/mL) and NADPH (1 mM) in the presence of the probe substrate ethoxyresorufin (0.5 μM) for 5 min at 37 °C. The selective CYP1A inhibitor, alpha-naphthoflavone, was screened alongside the test compounds as a positive control. CYP2B6 Inhibition. VCE-003.2 (0.1, 0.25, 1, 2.5, 10, 25 μM in DMSO; final DMSO concentration = 0.3%) was incubated with human liver microsomes (0.1 mg/mL) and NADPH (1 mM) in the presence of the probe substrate bupropion (110 μM) for 5 min at 37 °C. The selective CYP2B6 inhibitor, ticlopidine, was screened alongside the test compounds as a positive control. CYP2C8 Inhibition. […] For the CYP1A incubations, the reactions were terminated by methanol, and the formation of the metabolite, resorufin, was monitored by fluorescence (excitation wavelength = 535 nm, emission wavelength = 595 nm). […] Hydroxybupropion, 6α-hydroxypaclitaxel and 6ß-hydroxytestosterone were analyzed separately by LC-MS/MS. […]

Series [1] has as its system relevant cytochrome P450 isoforms. The series is classed as in vitro ADME. The conditions noted are these: human liver microsomes, up to 25 μM. Here is the method:
as §1
(Liver microsomes are vesicles of endoplasmic reticulum, rich in cytochrome P450 enzymes.)

`CCCCCC1=C(NCC)C(=O)C(CC=C(C)CCC=C(C)C)=C(O)C1=O` [VCE-003.2, 2-(3,7-dimethyl-octa-2,6-dienyl)-6-ethylamino-3-hydroxy-5-pentyl-(1,4) benzoquinone] yielded a mean neurosphere size in the series on P19 cells of 367.90 ± 15.20 μm. Moreover, at CYP1A, the half-maximal inhibitory concentration (IC50) was > 25 µM. Besides, the “inhibition of cytochrome P450 isoforms (in words)” value in series [1] is “did not inhibit significantly”.
